What was measured:
FLT3 = FLT3 Enzymatic Assay; assay type: biochemical; settings: ratio FLT3 IC50 / JH2 V617F binding IC50
Procedure: The kinase assays were carried out at room temperature in assay buffer (HEPES 50 mM, pH 7.0, NaN3 0.02%, BSA 0.01%, Orthovanadate 0.1 mM, DTT 1 mM, MgCl2 10 mM) in a final volume of 10 μL. Testing compounds were prepared by serial dilution in DMSO and transferred to the plate wells by ECHO liquid handler (Labcyte) with 0.5% DMSO in the final assay. […]. Reactions were initiated by the addition of 5 μL ATP in assay buffer. The final 10 μL kinase reaction consists of 0.011 nM FLT3, 1 mM ATP, 500 nM TK Substrate-biotin and SEB reagent 62.5 nM in assay buffer. […] The plates were then sealed and centrifuged at 1800 rpm for 2 minutes. After 60 minutes incubation at room temperature, the product activity was determined by measuring the fluorescence at 620 nm and 665 nm on Pherastar microplate reader (BMG Labtech). A ratio is calculated (665/620 nm) for each well. Wells with DMSO only were served as the positive controls and wells containing no ATP were used as negative controls. IC50 determination was performed by fitting the curve of percent control activity versus the log of the compound concentration using the GraphPad Prism 7.0 software.

[1] = system: Phospho-STAT5 (Tyr694) in SET-2 cells; test: STAT5 (Tyr694) Phosphorylation Cell Based Assay; settings: Homo sapiens, pSTAT5 (Tyr694) HTRF, 2 hours, RPMI with 10% FBS, read-out: SET2 IC50
Procedure: SET-2 cells was purchased from DSMZ (Germany). RPMI1640 medium, Fetal Bovine Serum and 384-white sold flat-bottom small volume plate were purchased from Thermo Fisher Scientific (Waltham, MA). Phospho-STAT5 (Tyr694) HTRF kit was purchased from Perkin Elmer (Waltham, MA).
SET-2 cells were cultured in RPMI media with 20% FBS at 37° C. in humidified incubator supplied with 5% CO2. On the day of assay, the cells were centrifuged to remove the culture media and resuspended with prewarmed RPMI with 10% FBS.
Testing compounds were prepared by serial dilution in DMSO and 50 nL/well test compounds were transferred to the 384 white low volume cell culture plate (Greiner Bio-one) by ECHO liquid handler (Labcyte). The cells were then dispensed with Multidrop (Thermo Fisher, Waltham, MA) at 10 μL/well (7×10^6 cells/mL) with 0.5% DMSO in the final assay. After the treated cells were incubated for 2 hours at 37° C./5% CO2 incubator, 4 μL/well supplemented lysis buffer (100X blocking buffer diluted 25 fold in 4X lysis buffer, Perkin Elmer) were added and incubated at room temperature for 90 min on orbital shaker at 600 rpm. Phospho-STAT5 Cryptate antibody and Phospho-STAT5 d2 antibody (1:1 vol/vol) were premixed and diluted 20 fold with in the detection buffer (Perkin Elmer). 4 μL of the premixed antibody solution were added to each well followed with 24 hours incubation at room temperature on orbital shaker at 600 rpm. The product activity was determined by measuring the fluorescence at 620 nm and 665 nm on Pherastar microplate reader (BMG Labtech). A ratio is calculated (665/620) for each well. Wells with DMSO only served as the positive controls and wells containing high concentration of control compound were used as negative controls. IC50 determination was performed by fitting the curve of percent control activity versus the log of the compound concentration using the GraphPad Prism 7.0 software.

[2] = In Vivo Pharmacokinetics, rat oral dosing; design: species or system Sprague Dawley rats; settings: male, Sprague Dawley, oral gavage 3.0 mg/kg, plasma, cassette dosing
Procedure: Test compounds were administered to male Sprague Dawley rats or male and female Cynomolgus monkeys intravenously or via oral gavage. For intravenous (IV) dosing, test compounds were dosed at 1 mg/kg using a formulation of 10% dimethylacetamide (DMAC), 10% propylene glycol (PG) in acidified saline via IV bolus for rat or 10 min IV infusion for monkey. For oral (PO) dosing, test compounds were dosed at 3.0 mg/kg using 5% DMAC in 0.5% methylcellulose in citrate buffer (pH -2.5). Blood samples were collected at predose and various time points up to 24 hours postdose. All blood samples were collected using EDTA as the anticoagulant and centrifuged to obtain plasma samples. The plasma concentrations of test compounds were determined by LC-MS/MS methods. The measured plasma concentrations were used to calculate PK parameters by standard noncompartmental methods using Phoenix© WinNonlin software program (version 8.0, Pharsight Corporation) or similar software. In rats and monkeys, cassette dosing of test compounds were conducted to obtain preliminary PK parameters. In vivo pharmacokinetic experiments with male beagle dogs may be performed under the conditions described above.

[3] = system: pSTAT5 signaling in SET-2 cells in whole blood; test: pSTAT5 SET-2 Whole Blood MSD Assay; assay type: cell-based; settings: Homo sapiens, SET-2 cells with whole blood, 2 hour incubation, read-out: SET2 WB IC50
Procedure: SET-2 cells shipped from ABS, RPMI1640 medium, Fetal Bovine Serum from Gibco, Phospho-STAT5a,b Whole Cell Lysate Kit from Mesoscale, Retronectin (Recombinant Human Fibronectin Fragment) from TaKaRa, 96 well cell culture plate flat bottom from Corning, lysis buffer from Cell Signaling Technology, and sterile PBS from Gibco. Whole Blood from by BioIVT.
SET-2 cells were cultured in RPMI media with 20% FBS at 37° C. humidified incubator supplied with 5% CO2. On the day of the assay, 40 μL per well of diluted retronectin working solution was added to sterile 96-well clear flat bottom tissue culture plates (1:200 dilution of retronectin in sterile PBS) and incubated at 37C for 1 hour. After 1 hour, the retronectin working solution was aspirated and SET-2 cells were seeded at 100,000/well in RPMI+20% FBS. Cells were incubated overnight at 37° C. and 5% CO2.
The next day, the medium was removed and 40 μL of diluted compounds in serum-free RPMI and whole blood was added to the cells for a 2 hour incubation at 37° C. and 5% CO2. The compound starting concentration is 20 μM and 2.5 fold serial diluted down to 0.21 nM. The whole blood and compound mixture was then aspirated off using the BlueCat plate washer and washed 1× with PBS. Cells were lysed by adding 40 μL of 3X complete lysis buffer and shaken at room temperature for 45-60 minutes (complete lysis buffer consists of Cell Signaling Technology lysis buffer diluted to 3X and supplemented with Mesoscale's protease inhibitor, phosphatase I inhibitor, and phosphatase II inhibitor). The pSTAT5 MSD plates were blocked by adding 150 μL of Blocker A solution per well to the MSD plates and incubated at room temperature with shaking at 400 rpm for one hour or longer. After blocking, plates were washed 3X with 300 μL/well of IX Tris Wash Buffer. After lysis, added 25 μL per well of lysed sample was added to MSD plate and incubated with shaking at 4° C. wrapped in foil overnight. The next day, plates were washed again and 25 μL/well of diluted 1X Detection Antibody Solution, wrapped in foil, and incubated at room temperature with shaking at 400 rpm for 1 hour.
Plates were then washed again and lastly, 150 μL/well of 1X Read Buffer T was added to all wells. Plates were analyzed on MSD Discovery within 5 minutes. […] Data analysis was performed in GraphPad Prism using a 4-parameter fit and data was reported as Average ±SD.

In the case of `COc1ccc(-c2c(-c3cn(C)nc3OC)[nH]c3ncc4c(c23)n([C@H]2CC[C@@](C)(NC(=O)C3CC3)CC2)c(=O)n4C)cc1` [Example 1, N-((1s,4s)-4-(7-(3-Methoxy-1-methyl-1H-pyrazol-4-yl)-8-(4-methoxyphenyl)-3-methyl-2-oxo-3,6-dihydroimidazo[4,5-d]pyrrolo[2,3-b]pyridin-1(2H)-yl)-1-methylcyclohexyl)cyclopropanecarboxamide], the “Selectivity FLT3/JH2 V617F” value (FLT3) is reported as “***** (***** refers to selectivity of >5000-fold to ≤12500-fold)”, the IC50 [1] is reported as no more than 300 nM and the AUC [2] is reported as greater than 1.5 µM·h. For the same molecule, the IC50 [3] was 2500 to 5000 nM.

For `[2H]C([2H])([2H])n1ncc2cc(-c3c(-c4cn(C)nc4OC)[nH]c4ncc5c(c34)n([C@H]3CC[C@@](C)(NC(=O)C4CC4)CC3)c(=O)n5C)ccc21` [Example 2, N-((1s,4s)-4-(7-(3-Methoxy-1-methyl-1H-pyrazol-4-yl)-3-methyl-8-(1-(methyl-d3)-1H-indazol-5-yl)-2-oxo-3,6-dihydroimidazo[4,5-d]pyrrolo[2,3-b]pyridin-1(2H)-yl)-1-methylcyclohexyl)cyclopropanecarboxamide], the “Selectivity FLT3/JH2 V617F” value (FLT3) was “****** (****** refers to selectivity of >12500-fold)”, the IC50 [1] was no more than 300 nM and the AUC [2] was 0.5 to 1.5 µM·h. It also gave an IC50 [3] of no more than 2500 nM.

With `[2H]C([2H])([2H])n1cc(-c2[nH]c3ncc4c(c3c2-c2ccc(OC)cc2)n([C@H]2CC[C@@](C)(NC(=O)C3CC3)CC2)c(=O)n4C)c(F)n1` [Example 3, N-((1s,4s)-4-(7-(3-fluoro-1-(methyl-d3)-1H-pyrazol-4-yl)-8-(4-methoxyphenyl)-3-methyl-2-oxo-3,6-dihydroimidazo[4,5-d]pyrrolo[2,3-b]pyridin-1(2H)-yl)-1-methylcyclohexyl)cyclopropanecarboxamide] the “Selectivity FLT3/JH2 V617F” value (FLT3) was “** (** refers to selectivity of >500-fold to ≤1500-fold)”, the IC50 [1] was no more than 300 nM and the AUC [2] was greater than 1.5 µM·h. The IC50 [3] was 2500 to 5000 nM.

For `[2H]C([2H])([2H])n1cc(-c2[nH]c3ncc4c(c3c2-c2ccc3c(cnn3C([2H])([2H])[2H])c2)n([C@H]2CC[C@@](C)(NC(=O)C3CC3)CC2)c(=O)n4C)c(F)n1` [Example 4, N-((1s,4s)-4-(7-(3-fluoro-1-(methyl-d3)-1H-pyrazol-4-yl)-3-methyl-8-(1-(methyl-d3)-1H-indazol-5-yl)-2-oxo-3,6-dihydroimidazo[4,5-d]pyrrolo[2,3-b]pyridin-1(2H)-yl)-1-methylcyclohexyl)cyclopropanecarboxamide], the “Selectivity FLT3/JH2 V617F” value (FLT3) was “*** (*** refers to selectivity of >1500-fold to ≤1750-fold)”, the IC50 [1] was no more than 300 nM and the AUC [2] was no more than 0.5 µM·h. The IC50 [3] was no more than 2500 nM.

For `[2H]C([2H])([2H])n1ncc2cc(-c3c(-c4cn(CC)nc4F)[nH]c4ncc5c(c34)n([C@H]3CC[C@@](C)(NC(=O)C4CC4)CC3)c(=O)n5C)ccc21` [Example 5, N-((1s,4s)-4-(7-(1-Ethyl-3-fluoro-1H-pyrazol-4-yl)-3-methyl-8-(1-(methyl-d3)-1H-indazol-5-yl)-2-oxo-3,6-dihydroimidazo[4,5-d]pyrrolo[2,3-b]pyridin-1(2H)-yl)-1-methylcyclohexyl)cyclopropanecarboxamide], the “Selectivity FLT3/JH2 V617F” value (FLT3) was “** (** refers to selectivity of >500-fold to ≤1500-fold)”, the IC50 [1] was no more than 300 nM and the AUC [2] was greater than 1.5 µM·h. It also gave an IC50 [3] of no more than 2500 nM.

In the case of `[2H]C([2H])([2H])n1cc(-c2[nH]c3ncc4c(c3c2-c2ccc(OC)cc2)n([C@H]2CC[C@@](C)(NC(=O)[C@H]3C[C@H]3F)CC2)c(=O)n4C([2H])([2H])[2H])c(F)n1` [Example 6, (1R,2R)-2-Fluoro-N-((1s,4S)-4-(7-(3-fluoro-1-(methyl-d3)-1H-pyrazol-4-yl)-8-(4-methoxyphenyl)-3-(methyl-d3)-2-oxo-3,6-dihydroimidazo[4,5-d]pyrrolo[2,3-b]pyridin-1(2H)-yl)-1-methylcyclohexyl)cyclopropane-1-carboxamide], the “Selectivity FLT3/JH2 V617F” value (FLT3) is reported as “** (** refers to selectivity of >500-fold to ≤1500-fold)”, the IC50 [1] is reported as no more than 300 nM and the AUC [2] is reported as greater than 1.5 µM·h. The IC50 [3] was no more than 2500 nM.

From patent US20240190876A1, “Tricyclic Urea Compounds As JAK2 V617F Inhibitors” (Incyte Corporation, priority 2022, published 2024)
